Results taken from patent US11390613B2, “Azole analogues and methods of use thereof” (UNIVERSITY OF CONNECTICUT, priority 2017, dated 2022).
Like-named read-outs stand apart in the source and are kept apart here.

System: Gli1 mRNA levels in the murine BCC cell line ASZ-001 (Hh pathway)
Experiment: Hh pathway inhibition: endogenous Gli1 mRNA (qRT-PCR) in ASZ-001 cells
Type: cell-based
Experimental: Initial Hh inhibition studies.
General Information for Cell Culture Studies Protocols for general cell culture, qPCR, and Hh inhibition ASZ cells are as previously described.
General Information for Cell Culture Studies. Protocols for general cell culture, qPCR, and Hh inhibition ASZ cells are as previously described.
Gene Expression Assay Protocol (ASZ-001): Cells are seeded (10,000 cells per well; 100 μL total volume per well) in a 96-well tissue culture plate. After 24 h of incubation (37° C., 5% CO2), growth media was removed and replaced with low FBS media. Cells were incubated for an additional 24 h. After this time, DMSO (vehicle control) and liposomes (Aqueous Solution) were added to the wells. […]
Rt-PCR Protocol: Following treatment and incubation periods, both RNA extraction and cDNA synthesis were performed using a TaqMan Cells-to-CT (fast) kit. cDNA synthesis utilized a BioRad MyCycler and was programmed according to the manufacturer's instructions. Quantitative RT-PCR was performed on an ABI 7500 system and made use of the following TaqMan Gene Expression Probes: mouse ActB (Mm00607939_s1) and mouse Gli1 (Mm00494654_m1). Relative gene expression levels were computed via ΔΔCT method using GraphPad Prism. Corresponding IC50 values were calculated as mean±SEM for at least three separate experiments performed in triplicate.

[1] = Mus musculus, ASZ001, Table P2, ASZ cells, Gli1 mRNA, 48 h incubation, read-out: IC50
[2] = Table 6, ASZ cells, Gli1 mRNA, 48 h incubation, read-out: IC50

**Q.** How did the IC50 [1] turn out when `C[C@]1(c2ccc(F)cc2F)C[C@H](COc2ccc(N3CCN(c4ccc(-n5cnn(CCC(=O)O)c5=O)cc4)CC3)cc2)CO1` [Compound P13, 3-(4-(4-(4-(4-(((3R,5R)-5-(2,4-difluorophenyl)-5-methyltetrahydrofuran-3-yl)methoxy)phenyl)piperazin-1-yl)phenyl)-5-oxo-4,5-dihydro-1H-1,2,4-triazol-1-yl)propanoic acid] was run?
**A.** 32 ± 10 nM

**Q.** For `C[C@@]1(c2ccc(Cl)cc2Cl)OC[C@@H](COc2ccc(N3CCN(c4ccc(-n5cn[nH]c5=O)cc4)CC3)cc2)O1` [Compound 41], which IC50 (Table 8, ASZ cells, Gli1 mRNA, 48 h incubation, read-out: IC50) is on record?
**A.** 140 nM

**Q.** With `C[C@]1(c2ccc(F)cc2F)C[C@H](COc2ccc(N3CCN(c4ccc(NC(=O)Oc5ccccc5)cc4)CC3)cc2)CO1` [Compound P21, phenyl (4-(4-(4-(((3R,5R)-5-(2,4-difluorophenyl)-5-methyltetrahydrofuran-3-yl)methoxy)phenyl)piperazin-1-yl)phenyl)carbamate] as the compound, how does the IC50 (Mus musculus, ASZ001, 48 h) read?
**A.** > 10000 nM

**Q.** Which IC50 (Mus musculus, ASZ001, 48 h) does the source give for `C[C@]1(c2ccc(Cl)cc2Cl)OC[C@@H](COc2ccc(N3CCN(c4ccc([N+](=O)[O-])cc4)CC3)cc2)O1` [Compound 7, 1-(4-(((2S,4R)-2-(2,4-dichlorophenyl)-2-methyl-1,3-dioxolan-4-yl)methoxy)phenyl)-4-(4-nitrophenyl)piperazine] here?
**A.** 260 ± 40 nM

**Q.** Which IC50 [1] does the source give for `C[C@]1(c2ccc(F)cc2F)C[C@H](COc2ccc(N3CCN(c4ccc([N+](=O)[O-])cc4)CC3)cc2)CO1` [Compound P19, 1-(4-(((3R,5R)-5-(2,4-difluorophenyl)-5-methyltetrahydrofuran-3-yl)methoxy)phenyl)-4-(4-nitrophenyl)piperazine] here?
**A.** 740 ± 150 nM

**Q.** `C[C@]1(c2ccc(F)cc2F)C[C@H](COc2ccc(N3CCN(c4ccc(-n5cnn(CCCO)c5=O)cc4)CC3)cc2)CO1` [Compound P15, 4-(4-(4-(4-(((3R,5R)-5-(2,4-difluorophenyl)-5-methyltetrahydrofuran-3-yl)methoxy)phenyl)piperazin-1-yl)phenyl)-2-(3-hydroxypropyl)-2,4-dihydro-3H-1,2,4-triazol-3-one] was tested. Which IC50 [1] did it give?
**A.** 20 ± 10 nM

**Q.** How did the IC50 [2] turn out when `C[C@@]1(c2ccc(Cl)cc2Cl)OC[C@@H](COc2ccc(N3CCN(c4ccc(NC(=O)c5ccccc5O)cc4)CC3)cc2)O1` [Compound 26, N-(4-(4-(4-(((2R,4R)-2-(2,4-dichlorophenyl)-2-methyl-1,3-dioxolan-4-yl)methoxy)phenyl)piperazin-1-yl)phenyl)-2-hydroxybenzamide] was run?
**A.** > 10000 nM

**Q.** With `C[C@]1(c2ccc(Cl)cc2Cl)OC[C@@H](COc2ccc(N3CCN(c4ccc(NC(=O)c5ccccn5)cc4)CC3)cc2)O1` [Compound 17, N-(4-(4-(4-(((2S,4R)-2-(2,4-dichlorophenyl)-2-methyl-1,3-dioxolan-4-yl)methoxy)phenyl)piperazin-1-yl)phenyl)picolinamide] as the compound, how does the IC50 (Mus musculus, ASZ001, 48 h) read?
**A.** 3900 ± 300 nM

**Q.** How did the IC50 [1] turn out when `CC1(c2ccc(Cl)cc2Cl)OCC(COc2ccc(N3CCN(c4ccc(-n5cnn(CCC(=O)O)c5=O)cc4)CC3)cc2)O1` (centres unmarked) [Compound I17, 3-(4-(4-(4-(4-((2-(2,4-dichlorophenyl)-2-methyl-1,3-dioxolan-4-yl)methoxy)phenyl)piperazin-1-yl)phenyl)-5-oxo-4,5-dihydro-1H-1,2,4-triazol-1-yl)propanoic acid] was run?
**A.** 12 ± 5 nM

**Q.** Which IC50 [1] does the source give for `C[C@]1(c2ccc(F)cc2F)C[C@H](COc2ccc(N3CCN(c4ccc(NC(=O)c5cccc(O)c5)cc4)CC3)cc2)CO1` [Compound P25, N-(4-(4-(4-(((3R,5R)-5-(2,4-difluorophenyl)-5-methyltetrahydrofuran-3-yl)methoxy)phenyl)piperazin-1-yl)phenyl)-3-hydroxybenzamide] here?
**A.** 190 ± 30 nM

**Q.** `C[C@@]1(c2ccc(Cl)cc2Cl)OC[C@@H](COc2ccc(N3CCN(c4ccc(NC(=O)c5ccccc5)cc4)CC3)cc2)O1` [Compound 10, N-(4-(4-(4-(((2R,4R)-2-(2,4-dichlorophenyl)-2-methyl-1,3-dioxolan-4-yl)methoxy)phenyl)piperazin-1-yl)phenyl)benzamide] was tested. Which IC50 [2] did it give?
**A.** > 10000 nM
